Laboratory results reported in US7824668B2, “Compositions for attracting stink bugs” (Cotton Incorporated, priority 2006, dated 2010).

Experiments:
Format in all cases: in vivo
[1] = tested on: Euschistus species; assay: Tedders trap field capture of Euschistus species, pheromone with vs without geraniol synergist; details: soybean field, Monticello, Ark.; 160 mg geraniol + 200 mg methyl (2E,4Z)-decadienoate vs pheromone alone; Pr>t 0.09
Procedure: An experiment was carried out in Monticello, Ark. to study the response of Euschistus species in a soybean field to a pheromone synergist. Geraniol was used as a synergist to methyl (2E,4Z)-decadienoate, which is a pheromone for both Euschistus species. […] traps were used in the experiment. Each treatment trap was baited with 160 mg geraniol and 200 mg methyl (2E,4Z)-decadienoate and each control trap was baited with 200 mg methyl (2E,4Z)-decadienoate. The control traps contained no geraniol or any other synergist. The trapped adult insects of Euschistus species were collected on a daily basis and their total numbers were counted. Statistical analysis was done using the Least Squares means separation from the SAS GLM procedure.

[2] = tested on: Euschistus servus; assay: Tedders trap field capture of Euschistus servus, pheromone with vs without geraniol synergist; details: 160 mg geraniol + 200 mg methyl (2E,4Z)-decadienoate vs pheromone alone
Procedure: An experiment was carried out near Starkville, Oktibbeha County in Mississippi to study the response of Euschistus servus to a pheromone synergist. Geraniol was used as a synergist with methyl (2E,4Z)-decadienoate, a pheromone for Euschistus servus. Tedders traps were used in the experiment. Each treatment trap was baited with 160 mg geraniol and 200 mg methyl (2E,4Z)-decadienoate and each control trap was baited with 200 mg methyl (2E,4Z)-decadienoate. The control trap contained no geraniol or any other synergist. The trapped adult insects of Euschistus servos were collected on a daily basis and their total numbers were counted. Statistical analysis was done using the Least Squares means separation from the SAS GLM procedure.

[3] = tested on: Euschistus tristigmus; assay: Tedders trap field capture of Euschistus tristigmus, pheromone with vs without geraniol synergist; details: soybean field; 160 mg geraniol + 200 mg methyl (2E,4Z)-decadienoate vs 200 mg methyl (2E,4Z)-decadienoate alone; Pr>t 0.04
Procedure: An experiment was carried out near Starkville, Oktibbeha County in Mississippi to study the response of Euschistus tristigmus in a crop field to a pheromone synergist. The crop field was a soybean field bordered on two sides by woods. Geraniol was used as a synergist with methyl (2E,4Z)-decadienoate, a pheromone for Euschistus tristigmus. Tedders traps were used in the experiment. Each trap was baited with 160 mg geraniol and 200 mg methyl (2E,4Z)-decadienoate and each control trap was baited with 200 mg methyl (2E,4Z)-decadienoate. The control trap contained no geraniol or other synergists. The trapped adult insects of Euschistus tristigmus were collected on a daily basis and the total number of trapped insects was counted. Statistical analysis was done using the Least Squares means separation from the SAS GLM procedure.

CC(C)=CCC/C(C)=C/CO [geraniol, E-(3,7)-Dimethyl-2,6-octadien-1-ol]
increase in the number of captured bugs [1]: ~269% | increase in the number of captured bugs ([2]; crepe myrtle field, Pr>t 0.51): ~72% | increase in the number of captured bugs ([2]; field of mixed crops of plum and okra, Pr>t 0.02): ~92% | increase in the number of captured bugs ([2]; new-peach field, Pr>t 0.05): ~251% | increase in the number of captured bugs ([2]; old-peach field, Pr>t 0.02): ~122% | increase in the number of captured bugs ([2]; soybean field, Pr>t 0.61): ~14% | increase in the number of captured Euchistus tristigmus [3]: ~75%
